Tested on: COLO205 cells
Assay: Phospho-proteome profiling (CDK-motif antibody enrichment, LC-MS/MS)
Type: cell-based, human
Conditions: 6 H
Text: We phospho-proteome profiled COLO205 cells to identify Mediator kinase substrates following chemical inhibition of Mediator kinase activity. Given the confirmed CDK8/19 selectivity of our compounds in binding and enzymatic activity assays, we employed a pool of antibodies selective for the proline-rich motifs phosphorylated by the CDK family to enrich potential CDK8/19 substrates for LC-MS/MS analysis.
Adherent COLO205 cells were lysed with a urea buffer, lysates were reduced with DTT, alkylated with iodoacetimide and digested with trypsin-tosylphenylalanyl chloromethyl ketone. Digested peptides were immunoprecipitated using a pool of motif antibodies from Cell Signaling Technologies (US) comprising: phospho-MAPK substrate (PXS*P or S*PXR/K, #2325, RRID:AB_331820), phospho-CDKs substrate ((K/H)-S*P, #2324; RRID:AB_2244779), phospho-PLK binding motif (ST*P, #5243; RRID:AB_10891778) and phospho-tPE motif (T*PE, #3004; RRID:AB_10890649)-of phospho-MAPK (2325), phospho-CDK (2324), phospho-PLK (5243) and phospho-tPE (C3004) motif-recognizing antibodies immobilized onto protein A/G beads. Immunoprecipitated peptides were analyzed using an LTQ-Orbitrap-Velos. Sequences were assigned to the MS/MS spectra and evaluated using SEQUEST 3G and SORCERER 2 (Sage-N Research v4.0, Milpitas). Quantitative data was evaluated and clustered in Spotfire Decision Site (www.spotfire.tibco.com) and normalized using quartile normalization. Functional annotation and pathway analysis used DAVID (https://david.ncifcrf.gov/). […]
Phospho-proteome analyses
Adherent COLO205 cells were washed with PBS and cells lysed using urea lysis buffer (9 M Urea, 20 mM HEPES, pH 8.0, 1 mM beta-glycerophosphate, 1 mM sodium vanadate, 2.5 mM sodium pyrophosphate) and stored at -80 °C prior to analysis. The supernatants were reduced with 100 mM DTT for 30 minutes at 55 °C, followed by alkylation with 50 mM iodoacetimide for 15 minutes at ambient temperature in the dark.
The samples were diluted in 20 mM HEPES, pH 8.0 and digested overnight with 10 ug/mL trypsin-tosylphenylalanyl chloromethyl ketone in 1 mM HCl. Digested peptides were acidified with 1% formic acid and then desalted over 360-mg SEP PAK C18 columns (Waters, UK). Peptides were eluted with 40% acetonitrile in 0.125% formic acid, dried under a vacuum and the lyophilised peptides used for immunoprecipitation.
A pool of motif antibodies from Cell Signaling Technologies (US) comprising: phospho-MAPK substrate (PXS*P or S*PXR/K, #2325, RRID:AB_331820), phospho-CDKs substrate ((K/H)S*P, #2324; RRID:AB_2244779), phospho-PLK binding motif (ST*P, […]
RRID:AB_10890649), were immobilised onto protein A/G beads overnight at 4 °C. The lyophilised peptides were resuspended in MOPS buffer (50 mM MOPS, pH 7.2, 10 mM KH2PO4, 50 mM NaCl) and centrifuged for 5 mins at 13,500 rpm in an Eppendorf benchtop microcentrifuge. The supernatants were incubated with the motif-bound beads for 2.5 hours at 4 °C . The beads were harvested by centrifugation at 4000 rpm in an Eppendorf benchtop microcentrifuge for 5 mins, washed with MOPS buffer twice and washed again 5 times with deionised water. The peptides were eluted off the beads using 0.125% formic acid, were desalted and dried under a vacuum. The lyophilised immunoprecipitated peptides were resuspended in 0.125% formic acid and separated on a capillary column packed with Magic C18 AQ reversed-phase resin.
Peptides were eluted using a 72-minute linear gradient of acetonitrile in 0.125% formic acid delivered at 280nL/min. Samples were analysed using an LTQ-Orbitrap-Velos.
MS Parameter Settings were: MS Run Time 96 min, MS1 Scan Range (300.0 – 1500.00), Top 20 MS/MS (Min Signal 500, Isolation Width 2.0, Normalized Coll.
Charge State Rejection Enabled, Charge State 1+ Rejected, Dynamic Exclusion Enabled, Repeat Count 1, Repeat Duration 35.0, Exclusion List Size 500, Exclusion Duration 40.0, Exclusion Mass Width Relative to Mass, Exclusion Mass Width 10ppm). […]

[1] = MCM4 peptide 69 - fsSppqmhssaipldfdvSspltygtpssr - 98
[2] = MCM4 peptide 86 - vsSpltygtpssr - 98
[3] = MDC1 peptide 1645 - SSvkTpkpvepaaSdlepftptdqsvTpeaiaqggqsk - 1682
[4] = MDC1 peptide 1649 - tpkpvepaasdlepfTptdqsvTpeaiaqggqsk - 1682
[5] = MED13 peptide 551 - TpStpqsqhfyqmpTpdplvpskpmedr - 578
[6] = MED13 peptide 551 - tpstpqSqhfyqmpTpdplvpskpmedr - 578
[7] = MED14 peptide 1106 - agnwpgSpqvsgpSpaar - 1123
[8] = MED26 peptide 295 - gSvpSpSprpqaldatqvpSplplaqpsTppvr - 328
[9] = MED26 peptide 295 - gsvpSpsprpqaldatqvpSplplaqpStppvrr - 328
[10] = MED26 peptide 295 - gsvpspsprpqaldatqvpSplplaqpStppvrr -328
[11] = MED26 peptide 295 - gsvpspsprpqaldatqvpSplplaqpsTppvr - 328
[12] = MLLT6 peptide 446 - palsatpvpadeTpetglkek - 466
[13] = NDRG3 peptide 327 - srthstSSSlgsgeSpfsr - 345
[14] = NEDD4L peptide 549 - avkdTlSnpqSpqpSpYnSpkpqhk - 593
[15] = NOP2 peptide 173 - eaaagiqwSeeeTedeeeekevTpesgppk - 202
[16] = NOSIP peptide 158 - vlpsfwipslTpeak - 172
[17] = NRIP1 peptide 537 - tsviespstnrtTpvSTpplltssk - 561
[18] = PBK peptide 18 - ksvlcstpTinipaSpfmqk - 37
[19] = PBK peptide 19 - svlcStptinipaSpfmqk - 37
[20] = PBK peptide 19 - svlcsTpTinipaspfmqk - 37
[21] = PDE12 peptide 200 - eakpgaaepevgvpsslspSSpSsswtetdveer - 233
[22] = PLEC peptide 4274/4384 - SSsvgsSssypiSpavsr - 4291/4401
[23] = PLEKHA6 peptide 453 - shsvprspSqgsysr - 467
[24] = PPP1R18 peptide 192 - wrlSpgeTper - 202
[25] = PRC1 peptide 487/447 - klntttmsnatanssirpifggtvyhSpvsr - 517/477

Q: For `Cn1cc(-c2ccc(-c3cncc(Cl)c3N3CCC4(CCNC4=O)CC3)cc2)cn1` [CCT251545], which “MEAN MS SIGNAL CMPD 1 6 H” value (MCM4 peptide 69 - fSsppqmhssaipldfdvSsplTygtpssr - 98) is on record?
A: 71644

Q: What about the “CMPD 1/DMSO” value [1] of the same compound?
A: 0.313

Q: What about the “MEAN MS SIGNAL CMPD 1 6 H” value [1] of the same compound?
A: 16633

Q: What about the “CMPD 1/DMSO” value [2] of the same compound?
A: 0.545

Q: What about the “MEAN MS SIGNAL CMPD 1 6 H” value [2] of the same compound?
A: 23881

Q: What about the “CMPD 1/DMSO” value [3] of the same compound?
A: 0.574

Q: And the “MEAN MS SIGNAL CMPD 1 6 H” value [3]?
A: 46837

Q: What about the “CMPD 1/DMSO” value [4] of the same compound?
A: 0.539

Q: What about the “MEAN MS SIGNAL CMPD 1 6 H” value [4] of the same compound?
A: 44678

Q: What about the “CMPD 1/DMSO” value [5] of the same compound?
A: 0.359

Q: And the “MEAN MS SIGNAL CMPD 1 6 H” value [5]?
A: 9156

Q: And the “CMPD 1/DMSO” value [6]?
A: 0.429

Q: And the “MEAN MS SIGNAL CMPD 1 6 H” value [6]?
A: 13284

Q: And the “CMPD 1/DMSO” value [7]?
A: 0.142

Q: What about the “MEAN MS SIGNAL CMPD 1 6 H” value [7] of the same compound?
A: 17584

Q: And the “CMPD 1/DMSO” value [8]?
A: 0.215

Q: And the “MEAN MS SIGNAL CMPD 1 6 H” value [8]?
A: 56284

Q: What about the “CMPD 1/DMSO” value [9] of the same compound?
A: 0.344

Q: What about the “MEAN MS SIGNAL CMPD 1 6 H” value [9] of the same compound?
A: 14569

Q: And the “CMPD 1/DMSO” value [10]?
A: 0.404

Q: What about the “MEAN MS SIGNAL CMPD 1 6 H” value [10] of the same compound?
A: 11273

Q: What about the “CMPD 1/DMSO” value [11] of the same compound?
A: 0.324

Q: And the “MEAN MS SIGNAL CMPD 1 6 H” value [11]?
A: 51395

Q: What about the “CMPD 1/DMSO” value [12] of the same compound?
A: 0.499

Q: What about the “MEAN MS SIGNAL CMPD 1 6 H” value [12] of the same compound?
A: 13974

Q: What about the “CMPD 1/DMSO” value [13] of the same compound?
A: 0.635

Q: And the “MEAN MS SIGNAL CMPD 1 6 H” value [13]?
A: 12713

Q: What about the “CMPD 1/DMSO” value [14] of the same compound?
A: 2.036

Q: And the “MEAN MS SIGNAL CMPD 1 6 H” value [14]?
A: 126084

Q: And the “CMPD 1/DMSO” value [15]?
A: 0.618

Q: What about the “MEAN MS SIGNAL CMPD 1 6 H” value [15] of the same compound?
A: 97741

Q: And the “CMPD 1/DMSO” value [16]?
A: 0.562

Q: And the “MEAN MS SIGNAL CMPD 1 6 H” value [16]?
A: 425932

Q: And the “CMPD 1/DMSO” value [17]?
A: 1.857

Q: What about the “MEAN MS SIGNAL CMPD 1 6 H” value [17] of the same compound?
A: 157739

Q: What about the “CMPD 1/DMSO” value [18] of the same compound?
A: 0.492

Q: And the “MEAN MS SIGNAL CMPD 1 6 H” value [18]?
A: 411168

Q: And the “CMPD 1/DMSO” value [19]?
A: 0.553

Q: What about the “MEAN MS SIGNAL CMPD 1 6 H” value [19] of the same compound?
A: 167495

Q: What about the “CMPD 1/DMSO” value [20] of the same compound?
A: 0.535

Q: And the “MEAN MS SIGNAL CMPD 1 6 H” value [20]?
A: 63854

Q: What about the “CMPD 1/DMSO” value [21] of the same compound?
A: 0.255

Q: What about the “MEAN MS SIGNAL CMPD 1 6 H” value [21] of the same compound?
A: 32966

Q: What about the “CMPD 1/DMSO” value [22] of the same compound?
A: 0.605

Q: And the “MEAN MS SIGNAL CMPD 1 6 H” value [22]?
A: 787072

Q: What about the “CMPD 1/DMSO” value [23] of the same compound?
A: 1.818

Q: What about the “MEAN MS SIGNAL CMPD 1 6 H” value [23] of the same compound?
A: 361701

Q: What about the “CMPD 1/DMSO” value [24] of the same compound?
A: 0.562

Q: What about the “MEAN MS SIGNAL CMPD 1 6 H” value [24] of the same compound?
A: 109529

Q: And the “CMPD 1/DMSO” value [25]?
A: 0.592

Q: What about the “MEAN MS SIGNAL CMPD 1 6 H” value [25] of the same compound?
A: 508312
